Data set [1] is described as follows: In vitro cytotoxicity assay (MTT cell viability) in HepG2 cells. The format is cell-based. The conditions noted are these: human. As for the experimental part: To evaluate antiviral selectivity, the cytotoxic activity of each compound was determined using a standard cell viability assay performed on the parental HepG2 cell line. Cell viability was determined by measuring the conversion of 3-(4,5-dimethylthiazol-2-yl)-2,5-diphenyltetrazolium bromide (MTT) to the insoluble formazan salt crystal that occurs in live cells. Briefly, HepG2 cells were seeded in 96-well plates at a density of 20,000 cells per well in EMEM+10% FBS (complete growth medium) and allowed to adhere overnight in a 37° C., 5% CO2 humidified incubator. The next day, test agents were prepared by performing 8 half-log10 serial dilutions in 100% DMSO at 200×the final desired concentration in the assay. Compounds were tested over a range of concentrations from 30 μM to 1.0 nM in the assay. HepG2 cells were incubated in the presence of various concentrations of CAMs for 7 days in a 37° C., 5% CO2 humidified incubator. At the completion of the 7-day incubation period, MTT reagent was added to each well and the mixture was incubated for an additional 3-4 hours. At the completion of the incubation period, all wells were aspirated to remove the culture medium. The formazan crystals were solubilized from the cell monolayers with 100% DMSO. Plates were briefly mixed on an orbital shaker and absorbance was measured at 492 nm using a Perkin-Elmer EnVision multi-label plate reader. All absorbance values were converted to a percentage of the signal obtained from the vehicle treated controls. Absorbance values at 492 nm are directly proportional to the number of viable cells present in the sample. A CC50 value (cytotoxic concentration that results in loss of 50% cell viability) was calculated from the dose-response curve by 4-parameter, non-linear regression analysis using the GraphPad Prism software. The positive control compound, staurosporine, reduced the viability of HepG2 cells in a dose-dependent manner (CC50=100 nM).

Data set [2] relates to HBV replication in HepAD38 cells. Put plainly: In vitro antiviral assay: extracellular HBV DNA by QPCR in HepAD38 cells. The format is cell-based, HBV (genotype D, serotype ayw). The conditions noted are these: Hepatitis B virus, 168 h, 7 days incubation, read-out: Anti-HBV EC50. As for the experimental part: The anti-HBV activity of the Capsid Assembly Modulators (CAMs) was evaluated in a cell based assay utilizing the human hepatoma cell line HepAD38 (Ladner, S K., et al., 1998). HepAD38 cells were derived from the parental line, HepG2, that were stably transfected with a construct containing an HBV genome (genotype D, serotype ayw) under the control of a tetracycline repressible CMV promoter. Upon removal of tetracycline, viral pre-genomic RNA (pgRNA) and mRNAs are expressed and infectious viral particles are assembled and secreted into the culture medium providing a reliable, robust system to measure multiple steps of the HBV life cycle. Disruption of capsid formation results in reduced levels of DNA-containing virus particles that are released into the culture supernatant. To quantify the effect of CAMs on HBV replication, we developed a sensitive QPCR-based assay that measures extracellular HBV DNA levels upon treatment of HepAD38 cells with various concentrations of test compounds.
HepAD38 cells were maintained in DMEM/F12 medium containing 10% FBS, 400 μg/mL G418 and 0.3 μg/mL tetracycline (tet+media) to maintain repression of HBV replication. To evaluate each compound, HepAD38 cells were seeded into 24-well collagen coated culture plates (Corning BioCoat) at a density of 200,000 cells per well in 1 mL of medium without tetracycline (tet-media) and allowed to adhere overnight at 37° C., 5% CO2 in a humidified incubator. The following day, media was refreshed and a dose range of each compound was prepared by performing 1 log10 serial dilutions in 100% DMSO at 200×the desired assay concentration. Dilutions were then added to the cells resulting in a final dose range of 1 μM to 10 pM and the plates were returned to the incubator. Following 7 days of incubation, culture supernatants were harvested and HBV DNA levels were evaluated by QPCR and compared to the vehicle treated control wells (i.e. DMSO alone).
To quantify HBV DNA levels, cell culture supernatants were diluted 1:10 in sterile, nuclease-free water (Gibco). The diluted supernatants were subsequently added to a PCR master mix containing 1×Roche Light Cycler Master Mix, 0.5 μM forward primer, 0.5 μM reverse primer, 0.2 μM Roche Universal Probe Library Probe 25. The volume was brought to 20 μL with nuclease-free water and amplification of the HBV target sequence was performed using a Roche LightCycler 480 QPCR instrument. PCR extended out to 45 cycles with each cycle consisting of a denaturation step at 95° C. for 10 sec., followed by an annealing step at 60° C. for 10 sec. and a brief extension step at 72° C. for 1 sec.
Extracellular HBV DNA levels, expressed in copies/mL, were determined by comparison to a standard curve (10^2-10^9 copies/mL) using the Roche LightCycler analysis software. These values were subsequently converted to percent inhibition of HBV replication by dividing the HBV DNA levels in the experimental samples with those obtained from the vehicle control (˜1-2×10^5 copies/mL). Potency, expressed as an EC50(the effective concentration required to inhibit 50% of HBV replication), was calculated from the dose-response curve using a 4-parameter non-linear regression analysis (GraphPad Prism). The nucleoside analog inhibitor entecavir was used as a positive control to validate each assay run. The EC50 value of entecavir in the HepAD38 assay was 0.5 nM, as previously reported in the literature.

In a further data set the test system is HBV. The conditions noted are these: Phase 1b clinical trial, 600 mg bid dosing for 29 days; cited from earlier work.

The term CC50 denotes the concentration giving 50% cytotoxicity. Low values mean greater toxicity to the cells, high ones lower toxicity to the cells. For orientation: EC50 means the concentration needed to bring the measured effect to its halfway point. Consider `Cc1c2c(c(C(=O)Nc3ccc(F)c(F)c3)n1C)CCC(C)NC2=O` (stereo not drawn) [Example 48, N-(3,4-difluorophenyl)-2,3,6-trimethyl-4-oxo-2,4,5,6,7,8-hexahydropyrrolo[3,4-c]azepine-1-carboxamide], for which the CC50 at 7 days in data set [1] was over 30000 nM. In addition, the EC50 in data set [2] was 500 to 1000 nM.
Consider `O=C(Nc1cc(F)c(F)c(F)c1)c1ccc(F)c(S(=O)(=O)N2CCC(O)CC2)c1` [NVR 3-778], for which the “reduction in HBV DNA” value in the data set on HBV is −1.7 log 10.
